Source: ChEMBL document CHEMBL4296182, “CO-ADD screening of NIH NCI Diversity Set V”
≈ marks a conversion by molar mass, not a printed value.

Legend:
[1] = tested on: Pseudomonas aeruginosa; assay: microbe, parasite or virus in culture; conditions: ATCC 27853, 18 h, ASSAY_TEST Inhibition of Bacterial Growth, detection method Absorption (OD600), MEDIA CAMHB, plate type 384well, NBS, CORNING #3640
Description: Antibacterial activity against Pseudomonas aeruginosa ATCC 27853 (CO-ADD:GN_042); MIC in CAMBH media using NBS plates, by OD(600)

[2] = tested on: Klebsiella pneumoniae; assay: microbe, parasite or virus in culture; conditions: ATCC 700603, 18 h, ASSAY_TEST Inhibition of Bacterial Growth, detection method Absorption (OD600), MEDIA CAMHB, plate type 384well, NBS, CORNING #3640
Description: Antibacterial activity against Klebsiella pneumoniae MDR ATCC 70063 (CO-ADD:GN_003); MIC in CAMBH media using NBS plates, by OD(600)

[3] = tested on: Candida albicans; assay: microbe, parasite or virus in culture; conditions: ATCC 90028, ASSAY_TEST Inhibition of Fungal Growth, detection method Absorption (OD530), plate type 384well, NBS, CORNING #3640
Description: Antifungal activity against Candida albicans ATCC 90028 (CO-ADD:FG_001); MIC in YNB media using NBS plates, by OD630

[4] = tested on: Escherichia coli; assay: microbe, parasite or virus in culture; conditions: ATCC 25922, 18 h, ASSAY_TEST Inhibition of Bacterial Growth, detection method Absorption (OD600), MEDIA CAMHB, plate type 384well, NBS, CORNING #3640
Description: Antibacterial activity against Escherichia coli ATCC 25922 (CO-ADD:GN_001); MIC in CAMBH media using NBS plates, by OD(600)

[5] = tested on: Cryptococcus neoformans
Description: Antifungal activity against Cryptococcus neoformans H99 ATCC 208821 (CO-ADD:FG_002); MIC in YNB media using NBS plates, by Resazurin OD(600-570)

[6] = tested on: Staphylococcus aureus; assay: microbe, parasite or virus in culture; conditions: ATCC 43300, 18 h, ASSAY_TEST Inhibition of Bacterial Growth, detection method Absorption (OD600), MEDIA CAMHB, plate type 384well, NBS, CORNING #3640
Description: Antibacterial activity against Staphylococcus aureus MRSA ATCC 43300 (CO-ADD:GP_020); MIC in CAMBH media, using NBS plates, by OD(600)

[7] = tested on: Acinetobacter baumannii; assay: microbe, parasite or virus in culture; conditions: ATCC 19606, 18 h, ASSAY_TEST Inhibition of Bacterial Growth, detection method Absorption (OD600), MEDIA CAMHB, plate type 384well, NBS, CORNING #3640
Description: Antibacterial activity against Acinetobacter baumannii ATCC 19606 (CO-ADD:GN_034); MIC in CAMBH media using NBS plates, by OD600

[8] = tested on: HEK293; assay: cells; type: functional; conditions: Homo sapiens, ATCC CRL1573, HEK293; ASSAY_TEST Inhibition of Cell Viability; detection method Resazurin; Fluorescence (ex560/em590); MEDIA DMEM with 10% FBS; plate type 384well; TC; CORNING #3712; time 18 hr

| Structure (SMILES) | MIC [1] | MIC [2] | MIC [3] | MIC [4] | MIC [5] | MIC [6] | MIC [7] | CC50 [8] |
| --- | --- | --- | --- | --- | --- | --- | --- | --- |
| COC12C(COC(N)=O)C3=C(C(=O)C(C)=C(N)C3=O)N1CC1C2N1C (centres undefined) | > 10 µM | > 10 µM | > 10 µM | 5 µM (≈ 1.74 µg/mL) | > 10 µM | 0.156 µM (≈ 0.0544 µg/mL) | > 10 µM | > 10 µM |
| C=Cc1cc(OC)c2c(c1)c(=O)oc1c2cc(OC)c2c(O)ccc(C3OC(C)C(O)C(C)(O)C3O)c21 (centres undefined) | > 10 µM | > 10 µM | > 10 µM | > 10 µM | > 10 µM | 0.156 µM (≈ 0.0795 µg/mL) | > 10 µM | 1.85 µM |
| Cc1ccc(C=C2C(Cl)=C(Cl)C(Cl)=C2Cl)cc1 | > 10 µM | > 10 µM | > 10 µM | > 10 µM | > 10 µM | > 10 µM | > 10 µM | > 10 µM |

The next lines start with results.

| MIC [1] | MIC [2] | MIC [3] | MIC [4] | MIC [5] | MIC [6] | MIC [7] | Structure (SMILES) | CC50 [8] |
| --- | --- | --- | --- | --- | --- | --- | --- | --- |
| > 10 µM | > 10 µM | > 10 µM | > 10 µM | 2.5 µM (≈ 1.19 µg/mL) | > 10 µM | > 10 µM | O=C(Nc1ccc(Nc2ccncc2)cc1)c1ccc(Nc2ccnc3ccc([N+](=O)[O-])cc23)cc1 | > 10 µM |
| > 10 µM | > 10 µM | > 10 µM | > 10 µM | > 10 µM | > 10 µM | > 10 µM | Cn1c2ccccc2c2ccc3c(c21)C(=O)C=CC3=O | > 10 µM |
| > 10 µM | > 10 µM | > 10 µM | > 10 µM | > 10 µM | > 10 µM | > 10 µM | Nc1nc(N)c2c(ccc3[nH]ccc32)n1 | > 10 µM |
| > 10 µM | > 10 µM | > 10 µM | 10 µM (≈ 2 µg/mL) | > 10 µM | > 10 µM | > 10 µM | O=[N+]([O-])c1ccc(/C=[N+](\[O-])CCO)o1 | > 10 µM |
| > 10 µM | > 10 µM | > 10 µM | 10 µM (≈ 5.05 µg/mL) | 5 µM (≈ 2.52 µg/mL) | 10 µM (≈ 5.05 µg/mL) | > 10 µM | Cn1ccc(=Nc2ccc(NC(=O)c3ccc(/N=c4\ccn(C)c5ccc([N+](=O)[O-])cc45)cc3)cc2)cc1 | > 10 µM |
